Results on 15 molecules are retold here after ChEMBL document CHEMBL6182948 (J Med Chem, 2025).

Molecules are shown by their SMILES.

For experiment [1], the species on record is Homo sapiens. The experiment in a line: Selectivity index, ratio of IC50 for human recombinant CYP1A2 to IC50 for human recombinant CYP1B1 using 7-ethoxyresorufin as substrate.
For the next experiment, the target named is T1, Cytochrome P450 1A1 (Homo sapiens, UniProt P04798).
T1 sequence (P04798 whole entry): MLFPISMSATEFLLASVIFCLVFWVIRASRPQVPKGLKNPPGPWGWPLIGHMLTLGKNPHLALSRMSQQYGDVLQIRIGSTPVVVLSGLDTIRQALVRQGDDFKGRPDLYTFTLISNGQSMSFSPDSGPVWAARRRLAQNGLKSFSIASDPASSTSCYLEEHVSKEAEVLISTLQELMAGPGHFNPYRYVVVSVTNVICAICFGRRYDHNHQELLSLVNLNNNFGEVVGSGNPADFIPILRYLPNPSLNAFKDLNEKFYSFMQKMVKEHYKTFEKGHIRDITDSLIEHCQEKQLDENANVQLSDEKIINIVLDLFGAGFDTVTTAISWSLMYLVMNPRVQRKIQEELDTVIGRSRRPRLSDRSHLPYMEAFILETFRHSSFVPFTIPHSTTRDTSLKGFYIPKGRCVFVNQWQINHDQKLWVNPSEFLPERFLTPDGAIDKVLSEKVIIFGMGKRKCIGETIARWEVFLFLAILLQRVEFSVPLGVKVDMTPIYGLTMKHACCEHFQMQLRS
Nature of the experiment: Inhibition of human recombinant CYP1A1 using 7-ethoxyresorufin as substrate incubated under dark condition for 15 mins in presence of NADPH by EROD fluorescence assay. The class given is ADME.

The next experiment deals with T2, Cytochrome P450 1A2 (Homo sapiens, UniProt P05177).
T2 sequence (P05177 whole entry): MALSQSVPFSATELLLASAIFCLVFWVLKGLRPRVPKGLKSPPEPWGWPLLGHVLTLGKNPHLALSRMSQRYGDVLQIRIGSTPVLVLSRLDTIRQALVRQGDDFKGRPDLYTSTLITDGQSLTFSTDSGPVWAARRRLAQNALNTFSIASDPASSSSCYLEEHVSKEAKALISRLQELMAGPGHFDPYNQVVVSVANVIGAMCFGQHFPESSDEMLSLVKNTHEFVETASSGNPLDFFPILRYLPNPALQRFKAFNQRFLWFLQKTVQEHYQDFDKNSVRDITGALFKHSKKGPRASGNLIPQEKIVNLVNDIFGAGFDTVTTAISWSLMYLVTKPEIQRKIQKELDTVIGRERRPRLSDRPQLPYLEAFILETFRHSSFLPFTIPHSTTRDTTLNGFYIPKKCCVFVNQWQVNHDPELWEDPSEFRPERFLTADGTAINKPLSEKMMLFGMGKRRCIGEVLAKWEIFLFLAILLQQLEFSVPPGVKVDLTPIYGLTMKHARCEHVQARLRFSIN
Nature of the experiment: Inhibition of human recombinant CYP1A2 using 7-ethoxyresorufin as substrate incubated under dark condition for 45 mins in presence of NADPH by EROD fluorescence assay. The experiment is classed as ADME.

Another experiment has as its target T3, Cytochrome P450 1B1 (Homo sapiens, UniProt Q16678).
T3 sequence (Q16678 whole entry): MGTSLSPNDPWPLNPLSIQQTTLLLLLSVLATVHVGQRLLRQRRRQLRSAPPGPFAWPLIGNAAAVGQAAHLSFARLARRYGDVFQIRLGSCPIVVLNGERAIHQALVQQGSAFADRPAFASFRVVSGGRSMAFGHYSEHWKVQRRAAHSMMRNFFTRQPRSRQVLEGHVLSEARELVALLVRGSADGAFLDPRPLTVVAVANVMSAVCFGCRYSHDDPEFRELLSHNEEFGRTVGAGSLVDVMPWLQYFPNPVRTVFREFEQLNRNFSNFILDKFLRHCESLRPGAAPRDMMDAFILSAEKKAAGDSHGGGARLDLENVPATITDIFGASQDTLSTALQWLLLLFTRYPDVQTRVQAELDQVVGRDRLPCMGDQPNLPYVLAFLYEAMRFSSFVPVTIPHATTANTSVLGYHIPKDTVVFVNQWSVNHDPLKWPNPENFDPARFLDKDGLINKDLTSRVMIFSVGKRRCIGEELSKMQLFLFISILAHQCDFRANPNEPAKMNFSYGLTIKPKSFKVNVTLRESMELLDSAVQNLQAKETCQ
The experiment in a line: Inhibition of human recombinant CYP1B1 using 7-ethoxyresorufin as substrate incubated under dark condition for 30 mins in presence of NADPH by EROD fluorescence assay. The class given is ADME.

Experiment [2] is filed under the species Homo sapiens. The experiment in a line: Selectivity index, ratio of IC50 for human recombinant CYP1A1 to IC50 for human recombinant CYP1B1 using 7-ethoxyresorufin as substrate.

For orientation: IC50 means the point on the concentration scale where inhibition reaches its midpoint. Regarding `Cc1sc(C(=O)Nc2ccc(C(F)(F)F)cc2)nc1-c1cccc(F)c1`, the figures for the Ratio IC50 in the experiment listed under Homo sapiens [1] and in the experiment listed under Homo sapiens [2] were 1100 and 79.2, respectively. Besides, the values for the IC50 on Cytochrome P450 1A1, on Cytochrome P450 1A2 and on Cytochrome P450 1B1 were 168 nM, 2330 nM and 2.12 nM, respectively.

For the molecule `Cc1sc(C(=O)Nc2cc(Cl)cc(Cl)c2)nc1-c1cccc(F)c1`, the results for the Ratio IC50 in the experiment listed under Homo sapiens [1] and in the experiment listed under Homo sapiens [2] were 1600 and 138, respectively. Moreover, the IC50 worked out at 122 nM on Cytochrome P450 1A1, 1410 nM on Cytochrome P450 1A2 and 0.88 nM on Cytochrome P450 1B1.

On to `O=C(Nc1ccc(Cl)cc1Cl)c1nc(-c2cccc(F)c2)cs1`, for which the Ratio IC50 in the experiment listed under Homo sapiens [1] turned out to be 1240; in the experiment listed under Homo sapiens [2] it was 77.4. Further, the IC50 worked out at 149 nM at Cytochrome P450 1A1, 2380 nM at Cytochrome P450 1A2 and 1.92 nM on Cytochrome P450 1B1.

On to `O=C(Nc1ccc(C(F)(F)F)cc1)c1nc(-c2cccc(F)c2)cs1`, for which the Ratio IC50 in the experiment listed under Homo sapiens [1] worked out at 1470; in the experiment filed under Homo sapiens [2] it was 426. For the same molecule, the IC50 on Cytochrome P450 1A1 worked out at 123 nM; on Cytochrome P450 1A2, 422 nM; on Cytochrome P450 1B1, 0.29 nM.

Turning to `O=C(Nc1cc(Cl)cc(Cl)c1)c1nc(-c2ccc(F)cc2)cs1`, the Ratio IC50 in the experiment listed under Homo sapiens [1] came to 2990; in the experiment filed under Homo sapiens [2], 195. In addition, the IC50 on Cytochrome P450 1A1 was found to be 277 nM; at Cytochrome P450 1A2, 4240 nM; at Cytochrome P450 1B1, 1.42 nM.

`Cc1ccc(-c2csc(C(=O)Nc3cc(Cl)cc(Cl)c3)n2)cc1`: the values for the Ratio IC50 in the experiment filed under Homo sapiens [1] and in the experiment listed under Homo sapiens [2] were 1430 and 55.1, respectively. Further, the IC50 at Cytochrome P450 1A1 was 566 nM; on Cytochrome P450 1A2, 14700 nM; on Cytochrome P450 1B1, 10.3 nM.

With `O=C(Nc1cc(Cl)cc(Cl)c1)c1nc(-c2ccc(Br)cc2)cs1`, the figures for the Ratio IC50 in the experiment filed under Homo sapiens [1] and in the experiment listed under Homo sapiens [2] were 167 and over 3790, respectively. In addition, the IC50 on Cytochrome P450 1A1 is over 100000 nM; at Cytochrome P450 1A2 it was 4390 nM; on Cytochrome P450 1B1, 26.4 nM.

For the molecule `O=C(Nc1ccc(I)cc1)c1nc(-c2cccc(F)c2)cs1`, the Ratio IC50 in the experiment filed under Homo sapiens [1] stood at 225; in the experiment listed under Homo sapiens [2] it was 104. Moreover, the IC50 on Cytochrome P450 1A1 came out at 150 nM; at Cytochrome P450 1A2, 324 nM; on Cytochrome P450 1B1 it was 1.44 nM.

For `N#Cc1cccc(-c2csc(C(=O)Nc3ccc(OC(F)F)cc3)n2)c1`, the Ratio IC50 was over 5550 in the experiment filed under Homo sapiens [1] and 7.8 in the experiment listed under Homo sapiens [2]. In addition, the results for the IC50 at Cytochrome P450 1A1, on Cytochrome P450 1A2 and on Cytochrome P450 1B1 were 70 nM, over 50000 nM and 9.02 nM, respectively.

On to `Cc1sc(C(=O)Nc2cc(Cl)cc(Cl)c2)nc1-c1cccc(Cl)c1`, for which the Ratio IC50 is over 5850 in the experiment filed under Homo sapiens [1] and 25.2 in the experiment listed under Homo sapiens [2]. For the same molecule, the IC50 was 43.1 nM at Cytochrome P450 1A1, over 10000 nM on Cytochrome P450 1A2 and 1.71 nM at Cytochrome P450 1B1.

As to `COc1cc(NC(=O)c2nc(-c3ccccc3F)cs2)cc(OC)c1`, the Ratio IC50 in the experiment listed under Homo sapiens [1] amounted to 86.5; in the experiment listed under Homo sapiens [2], 21.5. Further, the values for the IC50 at Cytochrome P450 1A1, on Cytochrome P450 1A2 and at Cytochrome P450 1B1 were 358 nM, 1440 nM and 16.6 nM, respectively.

For `N#Cc1ccc(-c2csc(C(=O)Nc3cc(Cl)cc(Cl)c3)n2)cn1`, the Ratio IC50 in the experiment filed under Homo sapiens [1] was found to be 481; in the experiment listed under Homo sapiens [2], 6.2. The results for the IC50 on Cytochrome P450 1A1, at Cytochrome P450 1A2 and at Cytochrome P450 1B1 were 72 nM, 5550 nM and 11.5 nM, respectively.

In the case of `NC(=O)c1cccc(-c2csc(C(=O)Nc3ccc(OC(F)F)cc3)n2)c1`, the Ratio IC50 in the experiment listed under Homo sapiens [1] was determined as 2490; in the experiment listed under Homo sapiens [2] it was 32. Further, the results for the IC50 at Cytochrome P450 1A1, on Cytochrome P450 1A2 and at Cytochrome P450 1B1 were 64.4 nM, 5010 nM and 2.01 nM, respectively.

`O=C(Nc1cc(Cl)cc(Cl)c1)c1nc(-c2ccc(F)cc2)c(-c2ccccc2)s1`: the Ratio IC50 in the experiment filed under Homo sapiens [1] is over 93.7; in the experiment listed under Homo sapiens [2] it was 0.1. Further, the IC50 at Cytochrome P450 1A1 is 121 nM; on Cytochrome P450 1A2 it was over 100000 nM; on Cytochrome P450 1B1, 1070 nM.

With `O=C(Nc1cc(Cl)cc(Cl)c1)c1nc(-c2ccc(I)cc2)cs1`, the Ratio IC50 in the experiment listed under Homo sapiens [1] was 71; in the experiment listed under Homo sapiens [2] it was over 445. The IC50 at Cytochrome P450 1A1 was over 10000 nM; on Cytochrome P450 1A2, 1590 nM; on Cytochrome P450 1B1, 22.5 nM.
